Read-outs that look alike come from different tables or passages of the source.

Common to all, as to assay: SelectScreen Kinase Profiling, single point inhibition and IC50 for off-target kinases
Holding throughout (assay type): biochemical

For experiment [1], the target named is off-target kinases (Homo sapiens, UniProt P10721, A829P). The settings on record: KIT A829P, LanthaScreen Binding.
The target of experiment [2] is T1, off-target kinases (Homo sapiens, UniProt O14757).
T1 sequence (O14757 1-476): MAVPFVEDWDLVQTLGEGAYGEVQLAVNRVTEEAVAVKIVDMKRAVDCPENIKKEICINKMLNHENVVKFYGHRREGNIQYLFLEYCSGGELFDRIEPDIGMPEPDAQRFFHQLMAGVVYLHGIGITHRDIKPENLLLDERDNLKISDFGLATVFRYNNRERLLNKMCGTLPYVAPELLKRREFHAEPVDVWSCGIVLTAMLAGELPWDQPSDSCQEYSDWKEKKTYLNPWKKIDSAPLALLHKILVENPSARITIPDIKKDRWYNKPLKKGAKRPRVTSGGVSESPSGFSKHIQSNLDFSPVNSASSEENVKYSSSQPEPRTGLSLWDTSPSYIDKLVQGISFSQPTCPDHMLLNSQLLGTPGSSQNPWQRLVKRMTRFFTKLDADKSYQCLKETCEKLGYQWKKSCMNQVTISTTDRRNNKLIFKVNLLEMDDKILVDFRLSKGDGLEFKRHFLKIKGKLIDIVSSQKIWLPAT
To be noted: CHEK1 (CHK1), ATP Km app, ZLYTE.

The target of experiment [3] is T2, off-target kinases (Homo sapiens, UniProt P51817).
T2 sequence (P51817 1-358): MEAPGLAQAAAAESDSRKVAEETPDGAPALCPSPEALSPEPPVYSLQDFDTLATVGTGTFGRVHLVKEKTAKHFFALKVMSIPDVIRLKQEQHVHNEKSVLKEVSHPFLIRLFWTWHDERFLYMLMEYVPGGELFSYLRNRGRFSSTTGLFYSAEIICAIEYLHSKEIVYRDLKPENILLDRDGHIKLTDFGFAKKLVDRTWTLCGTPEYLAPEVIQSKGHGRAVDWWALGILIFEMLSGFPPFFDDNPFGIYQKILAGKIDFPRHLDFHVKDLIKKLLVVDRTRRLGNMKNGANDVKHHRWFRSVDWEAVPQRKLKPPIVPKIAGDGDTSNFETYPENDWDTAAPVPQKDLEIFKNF
To be noted: PRKX, ZLYTE, ATP Km app.

Experiment [4] addresses T3, off-target kinases (Homo sapiens, UniProt Q06418).
T3 sequence (Q06418 41-890): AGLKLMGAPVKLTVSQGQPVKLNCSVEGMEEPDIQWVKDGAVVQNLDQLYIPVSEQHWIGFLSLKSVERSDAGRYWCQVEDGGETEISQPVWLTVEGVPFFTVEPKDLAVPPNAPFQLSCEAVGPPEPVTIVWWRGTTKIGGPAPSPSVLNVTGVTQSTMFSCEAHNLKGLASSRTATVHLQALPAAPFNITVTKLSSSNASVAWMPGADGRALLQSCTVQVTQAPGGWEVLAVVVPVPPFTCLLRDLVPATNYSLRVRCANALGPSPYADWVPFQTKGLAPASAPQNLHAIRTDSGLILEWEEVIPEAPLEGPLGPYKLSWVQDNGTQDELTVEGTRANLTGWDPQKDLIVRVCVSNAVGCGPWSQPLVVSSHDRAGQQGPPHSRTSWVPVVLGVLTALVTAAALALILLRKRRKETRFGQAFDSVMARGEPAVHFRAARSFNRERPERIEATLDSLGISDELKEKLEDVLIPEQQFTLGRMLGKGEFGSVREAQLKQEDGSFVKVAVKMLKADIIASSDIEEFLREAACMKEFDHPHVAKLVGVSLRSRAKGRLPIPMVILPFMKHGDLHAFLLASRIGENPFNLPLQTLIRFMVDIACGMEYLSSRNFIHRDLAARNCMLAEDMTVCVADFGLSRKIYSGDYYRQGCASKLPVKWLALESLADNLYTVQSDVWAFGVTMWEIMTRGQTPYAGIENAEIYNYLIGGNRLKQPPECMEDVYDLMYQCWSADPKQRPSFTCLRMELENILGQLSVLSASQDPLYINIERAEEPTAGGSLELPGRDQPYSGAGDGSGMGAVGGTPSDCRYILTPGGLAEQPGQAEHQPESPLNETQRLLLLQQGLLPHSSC
To be noted: TYRO3 (RSE), ZLYTE, ATP Km app.

Chain of off-target kinases (Homo sapiens, UniProt P10721, A829P) (P10721 26-976 A829P): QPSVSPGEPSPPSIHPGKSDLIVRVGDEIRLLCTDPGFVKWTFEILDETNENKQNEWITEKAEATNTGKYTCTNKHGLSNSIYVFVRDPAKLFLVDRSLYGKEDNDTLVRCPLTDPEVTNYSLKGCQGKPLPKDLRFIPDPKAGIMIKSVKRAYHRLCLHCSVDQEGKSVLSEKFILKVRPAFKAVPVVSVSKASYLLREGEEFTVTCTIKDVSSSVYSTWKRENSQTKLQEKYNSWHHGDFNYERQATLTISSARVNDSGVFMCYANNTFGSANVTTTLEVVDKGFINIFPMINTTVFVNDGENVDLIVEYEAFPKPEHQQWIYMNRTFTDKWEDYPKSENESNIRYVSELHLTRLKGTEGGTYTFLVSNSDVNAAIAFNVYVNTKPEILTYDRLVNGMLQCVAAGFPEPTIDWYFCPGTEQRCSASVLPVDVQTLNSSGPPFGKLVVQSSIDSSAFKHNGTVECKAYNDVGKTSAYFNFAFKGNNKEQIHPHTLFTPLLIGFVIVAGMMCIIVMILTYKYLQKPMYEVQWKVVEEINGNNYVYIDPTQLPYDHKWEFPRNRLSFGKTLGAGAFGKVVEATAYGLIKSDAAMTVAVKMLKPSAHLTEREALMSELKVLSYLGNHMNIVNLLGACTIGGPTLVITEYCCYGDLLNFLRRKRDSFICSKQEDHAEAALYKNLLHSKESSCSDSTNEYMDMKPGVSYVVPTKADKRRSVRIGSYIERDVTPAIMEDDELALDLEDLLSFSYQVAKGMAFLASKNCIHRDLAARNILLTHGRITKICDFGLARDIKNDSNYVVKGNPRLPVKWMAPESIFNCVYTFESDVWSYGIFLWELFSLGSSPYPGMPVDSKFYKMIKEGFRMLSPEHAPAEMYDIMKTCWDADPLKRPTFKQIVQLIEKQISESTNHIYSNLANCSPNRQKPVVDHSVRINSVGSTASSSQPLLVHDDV

As to `N#Cc1cc(-c2ncnc(Nc3ccc(N4CCN(C5COC5)CC4)cc3)n2)ccc1OC1CCOCC1` [Compound 1, 5-(4-((4-(4-(oxetan-3-yl)piperazin-1-yl)phenyl)amino)-1,3,5-triazin-2-yl)-2-((tetrahydro-2H-pyran-4-yl)oxy)benzonitrile], the inhibition (in general, the share of the control response that was lost under treatment) at off-target kinases [1] (read-out: % Inhibition 1) was 91%; on off-target kinases [1] (read-out: % Inhibition 2) it was 90%; on off-target kinases [1] (read-out: % Inhibition Avg), 90%; at off-target kinases [2] (read-out: % Inhibition 1) it was 78%; on off-target kinases [2] (read-out: % Inhibition 2), 78%; on off-target kinases [2] (read-out: % Inhibition Avg) it was 78%. The inhibition was 22% at off-target kinases [3] (read-out: % Inhibition 1); 30% at off-target kinases [3] (read-out: % Inhibition 2); 26% on off-target kinases [3] (read-out: % Inhibition Avg); 42% on off-target kinases [4] (read-out: % Inhibition 1); 39% at off-target kinases [4] (read-out: % Inhibition 2); 41% at off-target kinases [4] (read-out: % Inhibition Avg).

These data come from US11572590B2, “Methods for evaluating tumor cell spheroids using 3D microfluidic cell culture device” (Dana-Farber Cancer Institute, Inc., priority 2017, dated 2023).
